Laboratory results published in patent US9175044B2, “Derivatives of glyco-CF2-serine and glyco-CF2-threonine” (TFCHEM, priority 2010, dated 2015).

Tests used:
[1] = tested on: neonatal human skin fibroblasts (Cell line: CCD-27SK); assay: Preservation of neonatal skin fibroblasts under starvation conditions (Trypan blue viability assay); type: cell-based; conditions: for effect on skin fibroblasts under unfavorable conditions for growth: 5 mg/ml in starvation medium, 7 days
Method: • The neonatal human skin fibroblasts (Cell line: CCD-27SK, ATCC number CRL-1475) were grown with DMEM medium supplemented with Fetal Bovine Serum 10% final, antibiotics (Penicillin/Streptomycin) 1% final and Amphotericin B 0.1% final. • Fibroblasts were grown in 75 cm^2 culture flask to 80% confluence, in 37° C. and 10% CO2 incubator. The medium was changed every two days by 37° C. preheated fresh medium. Starvation Medium • This medium was composed of 45% subculture medium without Fetal Bovine Serum mixed with 55% of Phosphate Buffer Saline 1× containing EDTA (final concentration of 0.45 mM). This was referred to as serum free or starvation medium. Product Preparation • The compounds 13(b)αd1 and 13(b)αd2 (M=479.9 g/mol) were diluted in starvation medium to 5 mg/ml final and pH was adjusted at 7.4 by addition of NaOH 1N. […] So, only the dead cells are blue at microscopic observation. • For sampling, 110 μl of Trypan Blue (SIGMA T8154) was added to 110 μl of trypsinated cell suspension of matching well for counting. • 200 μl of the trypan blue/cell mixture are dropped to a hemacytometer. Cells are counting by using a Neubauer-counting chamber. The unstained (viable) and stained (nonviable) cells are counted separately on 9 area of a large square (1 mm^2) and added to obtain the total number of cells per sample. An average of three counts was used to calculate the viability percentage as: [number of viable cells/total number of cells]*100 • The cell viability percentages from cultures under starvation conditions were compared with control culture for several days after their addition (D0, D3, D4, D5, D6, D7). Results

α-galactosidase = molecular target: T1, α-galactosidase (Coffea arabica, UniProt Q42656); assay: Enzymatic stability of α-Gal-CF2-Ser pseudo-glycosidic bond with α-galactosidase; type: in vitro ADME; conditions: 24 h at 37° C.; for hydrolysis after incubation with α-galactosidase, mass spectra with vs without enzyme: ammonium acetate buffer 10 mM pH 7, α-galactosidase 2.25 U, MS; for cleavage by α-galactosidase, F-NMR analysis: ammonium acetate buffer pH 7, α-galactosidase 2.25 U
T1 construct: purchased Sigma G8507
T1 sequence (Q42656 16-378): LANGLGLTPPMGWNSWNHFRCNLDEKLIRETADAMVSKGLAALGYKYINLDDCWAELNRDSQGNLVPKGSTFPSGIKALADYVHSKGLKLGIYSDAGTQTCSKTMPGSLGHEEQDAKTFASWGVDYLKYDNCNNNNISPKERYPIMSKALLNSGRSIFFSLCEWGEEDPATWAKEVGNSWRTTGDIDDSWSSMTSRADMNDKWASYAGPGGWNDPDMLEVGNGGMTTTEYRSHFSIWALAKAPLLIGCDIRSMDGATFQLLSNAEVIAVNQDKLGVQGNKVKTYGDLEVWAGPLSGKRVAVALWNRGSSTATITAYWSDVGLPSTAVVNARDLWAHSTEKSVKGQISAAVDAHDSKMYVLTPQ
Method: The enzymatic stability has been performed with compounds Cd1, Cd2, Dd1 and Dd2 according to the invention and compound F was used as a reference compound to control the efficacy of the α-galactosidase. All the compounds have been treated with α-galactosidase. The stability of compounds Cd1, Cd2, Dd1 and Dd2 has been assessed by MS analysis after incubation with α-galactosidase. The procedure has been adapted from Maljaars et al. J. Comb. Chem. 2006, 8, 812-819.
Test compound Cd1 ([…], 1.8 mg) in 0.75 mL ammonium acetate buffer (10 mM, pH 7) was kept 24 h at 37° C. in the presence and absence of α-galactosidase (2.25 U, 41 μL of a 3.7 mg·mL^−1 suspension in ammonium sulphate (G8507 sigma, 14.7 U/mg)). 300 μL of the samples were filtered through a 3-kDa-cutoff centrifugal filter (Millipore) and the filter was washed with H2O (2×300 μL). The resultant solutions were diluted in water/methanol 1:1 (3 μL in 1 mL);
Test compound Cd2 ([…], 5.3 mg) has been treated in the presence and absence of α-galactosidase following the same process.
The samples of compound Cd1 and Cd2 in presence of α-galactosidase have been analyzed by mass spectrometry and their spectra compared to the mass spectra of compound Cd1 and Cd2 in absence of α-galactosidase.
The same procedure was applied to compound Dd1 ([…], 2.6 mg) and Dd2 ([…], 2.6 mg).
In parallel, p-nitrophenyl-α-galactoside (compound F, 6 μmol, 1.8 mg) in 0.75 mL of ammonium acetate buffer (10 mM, pH 7) was kept 24 h at 37° C. in the presence and absence of α-galactosidase 2.25 U, 41 μL of a 3.7 mg·mL^−1 suspension in ammonium sulphate ((G8507 sigma) 14.7 U/mg). The OD of the two samples was measured at 420 nm to verify that the α-galactosidase is working and that degradation occurs on compound F (OD420 with α-galactosidase=1.6303/OD420 without α-galactosidase=0.0124).

β-galactosidase = molecular target: T2, β-galactosidase (Escherichia coli, UniProt P00722); type: in vitro ADME; conditions: 24 h at 37° C.; for hydrolysis after incubation with β-galactosidase, mass spectra with vs without enzyme: ammonium acetate buffer 10 mM pH 7, β-galactosidase 4.5 U, MS (ESI)
T2 construct: purchased Sigma 48275
T2 sequence (P00722 2-1024): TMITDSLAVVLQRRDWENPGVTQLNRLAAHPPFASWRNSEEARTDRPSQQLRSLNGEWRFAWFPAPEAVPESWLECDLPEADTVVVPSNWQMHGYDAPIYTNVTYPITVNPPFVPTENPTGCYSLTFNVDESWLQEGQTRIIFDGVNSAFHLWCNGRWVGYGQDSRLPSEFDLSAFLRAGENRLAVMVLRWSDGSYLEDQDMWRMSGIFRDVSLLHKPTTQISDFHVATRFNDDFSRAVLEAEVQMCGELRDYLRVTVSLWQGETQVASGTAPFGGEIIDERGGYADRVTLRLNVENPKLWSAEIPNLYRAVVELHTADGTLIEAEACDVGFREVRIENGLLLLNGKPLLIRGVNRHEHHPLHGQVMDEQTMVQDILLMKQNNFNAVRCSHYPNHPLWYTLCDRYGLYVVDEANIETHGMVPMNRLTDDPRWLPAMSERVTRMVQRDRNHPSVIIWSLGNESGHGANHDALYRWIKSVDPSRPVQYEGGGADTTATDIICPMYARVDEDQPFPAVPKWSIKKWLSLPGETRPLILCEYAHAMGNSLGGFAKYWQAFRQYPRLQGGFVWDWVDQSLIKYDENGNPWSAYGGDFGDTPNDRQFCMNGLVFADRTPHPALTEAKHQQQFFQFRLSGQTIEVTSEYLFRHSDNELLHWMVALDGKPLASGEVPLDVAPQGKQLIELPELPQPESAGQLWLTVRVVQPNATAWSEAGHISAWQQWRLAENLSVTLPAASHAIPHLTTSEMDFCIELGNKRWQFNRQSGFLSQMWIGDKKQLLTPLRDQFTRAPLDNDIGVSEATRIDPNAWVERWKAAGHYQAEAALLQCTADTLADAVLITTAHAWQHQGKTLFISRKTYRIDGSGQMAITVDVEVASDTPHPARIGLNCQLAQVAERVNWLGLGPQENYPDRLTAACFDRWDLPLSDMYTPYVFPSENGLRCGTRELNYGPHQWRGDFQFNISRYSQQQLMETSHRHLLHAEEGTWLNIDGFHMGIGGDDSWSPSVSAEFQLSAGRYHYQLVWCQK
Method: The enzymatic stability has been performed with compound Ad1 and Ad2 according to the invention and compound B used as a reference compound to control the efficacy of the β-galactosidase. Both compounds have been treated with β-galactosidase. The stability of compound Ad1 and Ad2 has been assessed by mass spectrum (MS) analysis after incubation with β-galactosidase. The samples have been injected and ionized by electrospray (ES) (in positive and negative mode). The procedure has been adapted from Maljaars et al. J. Comb. Chem. 2006, 8, 812-819.
Test compound Ad1 (12 μmol, 5.3 mg) in 1.5 mL ammonium acetate buffer (10 mM, pH 7) was kept 24 h at 37° C. in the presence and absence of β-galactosidase (4.5 U, 32 μL of a 1 mg·mL^−1 solution in ammonium acetate buffer, (48275 sigma, 140 U per mg)). 300 μL of the sample was filtered through a 3-kDa-cutoff centrifugal filter (Millipore), and the filter was washed with H2O (2×300 μL). The obtained solutions were diluted in water/methanol 1:1 (3 μL in 1 mL).
Test compound Ad2 (12 μmol, 5.3 mg) has been treated in the presence and absence of β-galactosidase following the same process.
These samples of compound Ad1 and Ad2 in presence of β-galactosidase have been submitted to mass spectra and compared to the mass spectra of compound Ad1 and Ad2 in absence of β-galactosidase.
The two samples were also analyzed by F-NMR to confirm that the test compound Ad1 and Ad2 were not cleaved by the β-galactosidase.
In parallel, p-nitrophenyl-β-galactoside (compound B, 12 μmol, 3.6 mg) in 1.5 mL ammonium acetate buffer (10 mM, pH 7) was kept 24 h at 37° C. in the presence and absence of β-galactosidase (4.5 U, 32 μL of a 1 mg·mL^−1 solution in ammonium acetate buffer (48275 sigma, 140 U per mg)).
The optical density (OD) of the two samples was measured at 420 nm to verify that the β-galactosidase is working and that degradation occurs on compound B (OD420 with β-galactosidase=1.5786/OD420 without β-galactosidase=0.0465).

[2] = ammonium acetate buffer pH 7, β-galactosidase 4.5 U

Compound | hydrolysis after incubation with α-galactosidase, mass spectra with vs without enzyme (α-galactosidase) | cleavage by α-galactosidase, F-NMR analysis (α-galactosidase) | other results
C[C@H](NC(=O)[C@H](C)NC(=O)C(N)CC(F)(F)[C@H]1O[C@H](CO)[C@H](O)[C@H](O)[C@H]1O)C(=O)O (single isomer, unassigned) [13(b)αd1] | – | – | effect on skin fibroblasts under unfavorable conditions for growth [1]: preservative effect; viability at 5000 µg/mL ([1]; Homo sapiens, CCD-27Sk, 168 h, 5 mg/ml in starvation (serum free) medium, up to 7 days of incubation, Trypan blue exclusion, read-out: fibroblast viability): ~95%
C[C@H](NC(=O)[C@H](C)NC(=O)C(N)CC(F)(F)[C@H]1O[C@H](CO)[C@H](O)[C@H](O)[C@H]1O)C(=O)O (single isomer, unassigned) [13(b)αd2] | – | – | effect on skin fibroblasts under unfavorable conditions for growth [1]: preservative effect
C[C@H](NC(=O)[C@H](C)NC(=O)C(N)CC(F)(F)[C@H]1O[C@H](CO)[C@H](O)[C@H](O)[C@H]1O)C(=O)O (single isomer, unassigned) [Dd1] | no hydrolysis occurs | not cleaved | –
C[C@H](NC(=O)[C@H](C)NC(=O)C(N)CC(F)(F)[C@H]1O[C@H](CO)[C@H](O)[C@H](O)[C@H]1O)C(=O)O (single isomer, unassigned) [Dd2] | no hydrolysis occurs | not cleaved | –
C[C@H](NC(=O)[C@H](C)NC(=O)C(N)CC(F)(F)[C@@H]1O[C@H](CO)[C@H](O)[C@H](O)[C@H]1O)C(=O)O (stereo partly shown) [Ad1] | – | – | hydrolysis after incubation with β-galactosidase, mass spectra with vs without enzyme (β-galactosidase): no hydrolysis occurs; cleavage by β-galactosidase, F-NMR analysis (β-galactosidase; [2]): not cleaved
C[C@H](NC(=O)[C@H](C)NC(=O)C(N)CC(F)(F)[C@@H]1O[C@H](CO)[C@H](O)[C@H](O)[C@H]1O)C(=O)O (stereo partly shown) [Ad2] | – | – | hydrolysis after incubation with β-galactosidase, mass spectra with vs without enzyme (β-galactosidase): no hydrolysis occurs; cleavage by β-galactosidase, F-NMR analysis (β-galactosidase; [2]): not cleaved
O=[N+]([O-])c1ccc(O[C@@H]2O[C@H](CO)[C@H](O)[C@H](O)[C@H]2O)cc1 [B, p-nitrophenyl-β-galactoside, reference compound] | – | – | visual observation in the presence of β-galactosidase (decomposition) (β-galactosidase; [2]): yellow coloration was observed
NC(CC(F)(F)[C@H]1O[C@H](CO)[C@H](O)[C@H](O)[C@H]1O)C(=O)O (stereo partly shown) [Cd1] | no hydrolysis occurs | not cleaved | –
NC(CC(F)(F)[C@H]1O[C@H](CO)[C@H](O)[C@H](O)[C@H]1O)C(=O)O (stereo partly shown) [Cd2] | no hydrolysis occurs | not cleaved | –
